Assay results reported in the NIST ThermoML archive (doi:10.1016/j.tca.2012.07.021).

Tests used:
[1] = Crystal; DTA
[2] = Molar enthalpy of transition or fusion; details: Crystal; DSC
[3] = molar heat capacity at constant pressure; details: 101.33 kPa, Crystal, Small sample (50 mg) DSC

O.O.O.O.O.O.[Cl-].[Cl-].[Mg+2] [magnesium chloride hexahydrate]
Details | Molar enthalpy of transition or fusion [kcal/mol] | Normal melting temperature [°C]
[1] | – | 117.5
[2] | 8.21 | –

[3]
Details | molar heat capacity at constant pressure [J/K/mol]
298.15 K | 336.4
299.15 K | 336.1
300.15 K | 336.2
301.15 K | 336.7
302.15 K | 337.2
303.15 K | 337.8
304.15 K | 338.3
305.15 K | 338.8
306.15 K | 339.3
307.15 K | 339.8
308.15 K | 340.3
309.15 K | 340.9
310.15 K | 341.4
311.15 K | 342
312.15 K | 342.5
313.15 K | 343
314.15 K | 343.5
315.15 K | 344.1
316.15 K | 344.6
317.15 K | 345.2
318.15 K | 345.7
319.15 K | 346.3
320.15 K | 346.9
321.15 K | 347.4
322.15 K | 348
323.15 K | 348.5
324.15 K | 349.1
325.15 K | 349.6
326.15 K | 350.1
327.15 K | 350.7
328.15 K | 351.3
329.15 K | 351.8
330.15 K | 352.4
331.15 K | 353
332.15 K | 353.6
333.15 K | 354.2
334.15 K | 354.8
335.15 K | 355.4
336.15 K | 355.9
337.15 K | 356.5
338.15 K | 357.1
339.15 K | 357.8
340.15 K | 358.4
341.15 K | 359.1
342.15 K | 359.7
343.15 K | 360.3
344.15 K | 360.9
345.15 K | 361.5
346.15 K | 362.2
347.15 K | 362.9
348.15 K | 363.6
349.15 K | 364.3
350.15 K | 365
351.15 K | 365.6
352.15 K | 366.3
353.15 K | 367
354.15 K | 367.8
355.15 K | 368.6
356.15 K | 369.3
357.15 K | 370.1
358.15 K | 370.8
359.15 K | 371.7
360.15 K | 372.4
361.15 K | 373.3
362.15 K | 374.2
363.15 K | 375.1
364.15 K | 376
365.15 K | 377
366.15 K | 377.9
367.15 K | 379
368.15 K | 380
369.15 K | 381.1
370.15 K | 382.1
371.15 K | 383.3
372.15 K | 384.4
373.15 K | 385.6
374.15 K | 386.8
375.15 K | 388.1
376.15 K | 389.3
377.15 K | 390.6
378.15 K | 392
379.15 K | 393.4
380.15 K | 394.9
381.15 K | 396.4
382.15 K | 397.8
383.15 K | 399.4
384.15 K | 401.3
385.15 K | 403.3
386.15 K | 405.5
387.15 K | 409.7
388.15 K | 418.7
389.15 K | 451.6
